This assay addresses p38α kinase (Homo sapiens, UniProt Q16539). Nature of the assay: p38α Flash Plate Assay (p38 kinase inhibition). The assay is classed as biochemical. The following applies: in vitro; 150 μM ATP, 0.05 mM biotinylated peptide substrate, 5 nM enzyme, 60 minute incubation at 30° Celsius; read-out: P38 α-FLASHPLATE IC50. The protocol:
Assay for p38 Kinase Inhibition—p38α Flash Plate Assay
The compounds to be tested were solubilized in DMSO and diluted with water to the desired concentrations. The p38 kinase was diluted to 20 nM into a buffer containing 20 mM MOPS, pH 7.0, 25 mM beta-glycerol phosphate, 2 mg/ml gelatin, 0.5 mM EGTA (ethylene-bis-(oxyethylenenitrilo)-tetraacetic acid), and 4 mM dithiothreitol (DTT).
The reaction was carried out by mixing 20 μl test compound with 10 μl of a substrate cocktail containing 0.2 mM biotinylated peptide substrate and 0.6 mM ATP (+100 μCi/ml gamma-^33P-ATP) in a 5× assay buffer. The reaction was initiated by the addition of 10 μl of p38 kinase. Final assay conditions were 25 mM MOPS, pH 7.0, 26.25 mM beta-glycerol phosphate, 80 mM KCl, 22 mM MgCl2, 3 mM MgSO4, 1 mg/ml gelatin, 0.625 mM EGTA, 1 mM DTT, 0.05 mM peptide substrate, 150 μM ATP, and 5 nM enzyme. After a 60 minute incubation at 30° Celsius, the reaction was stopped by the addition of 10 μl per reaction of 0.25 M phosphoric acid.
A portion of the reaction was transferred to a streptavidin-coated Flash Plate (Perkin Elmer); the Flash Plate was incubated for 60 minutes at 30° Celsius and then washed 3× with PBS containing 0.01% Tween-20.
Counts incorporated are determined on a scintillation counter. Relative enzyme activity was calculated by subtracting background counts (counts measured in the absence of enzyme) from each result, and comparing the resulting counts to those obtained in the absence of inhibitor. IC50 values were determined with curve-fitting plots available with common software packages. The IC50 was expressed as the concentration of compound which inhibited the enzyme activity by 50%.

Chain of p38α kinase (Q16539 whole entry): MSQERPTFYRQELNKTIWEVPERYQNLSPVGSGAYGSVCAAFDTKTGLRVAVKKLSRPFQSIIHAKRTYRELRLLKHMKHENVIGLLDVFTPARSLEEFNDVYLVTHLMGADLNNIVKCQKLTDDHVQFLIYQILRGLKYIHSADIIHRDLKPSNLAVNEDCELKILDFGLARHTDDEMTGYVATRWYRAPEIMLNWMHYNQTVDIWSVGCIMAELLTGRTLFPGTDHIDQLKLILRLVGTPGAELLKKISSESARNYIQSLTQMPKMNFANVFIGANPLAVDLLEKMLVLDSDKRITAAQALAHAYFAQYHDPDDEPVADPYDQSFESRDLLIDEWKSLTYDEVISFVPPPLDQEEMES

By IC50 is commonly meant the point on the concentration scale where inhibition reaches its midpoint. Take `COc1cc2[nH]ccc2nc1C(=O)N1C[C@H](C)N(Cc2ccc(F)cc2)C[C@H]1C` [compound 74]: the IC50 turned out to be 98 nM. Take `COc1ccc(Cn2ccc3cc(C(=O)N4C[C@H](C)N(Cc5ccc(F)cc5)C[C@H]4C)c(OC)nc32)cc1` [compound 38]: the IC50 was determined as 1500 nM.

For the molecule `COc1nc2[nH]cc(C(=O)C(F)(F)F)c2cc1C(=O)N1CCC(Cc2ccc(F)cc2)CC1` [compound 26], the IC50 was 95 nM. Under `CCNC(=O)C(=O)c1c[nH]c2nc(C)c(C(=O)N3C[C@H](C)N(Cc4ccc(F)cc4)C[C@H]3C)cc12` [compound 64] stands 80 nM; under `CNC(=O)C(=O)c1c[nH]c2nc(OC)c(C(=O)N3C[C@H](C)N(C(c4ccccc4)c4ccccc4)C[C@H]3C)cc12` [compound 24], 42 nM; under `CCNC(=O)C(=O)c1cn(C)c2nc(OC)c(C(=O)N3C[C@H](C)N(Cc4ccc(F)cc4)C[C@H]3C)cc12` [compound 44], 70 nM. As to `CCOc1nc2[nH]cc(C(=O)C(N)=O)c2cc1C(=O)N1C[C@H](C)N(Cc2ccc(F)cc2)C[C@H]1C` [compound 35], the IC50 turned out to be 20 nM. Consider `CCNC(=O)C(=O)c1cn(COC)c2nc(OC)c(C(=O)N3C[C@H](C)N(Cc4ccc(F)cc4)C[C@H]3C)cc12` [compound 51], for which the IC50 was 60 nM. Under `COc1nc2[nH]cc(C(=O)C(N)=O)c2cc1C(=O)N1CCC(Cc2ccc(F)cc2)CC1` [compound 17] stands 57 nM. On to `CCOc1nc2[nH]cc(C(=O)C(=O)NC)c2cc1C(=O)N1CCC(Cc2ccc(F)cc2)CC1` [compound 36], for which the IC50 turned out to be 64 nM.

In the case of `COc1nc2c(cc1C(=O)N1C[C@H](C)N(Cc3ccc(F)cc3)C[C@H]1C)c(C(=O)C(=O)NC(C)C)cn2C` [compound 49], the IC50 was 60 nM. For the molecule `CNC(=O)C(=O)c1cn(C)c2nc(C)c(C(=O)N3C[C@H](C)N(Cc4ccc(F)cc4)C[C@H]3C)cc12` [compound 61], the IC50 was 90 nM.

For the molecule `COc1nc2c(cc1C(=O)N1C[C@H](C)N(Cc3ccc(F)cc3)C[C@H]1C)c(C(=O)C(=O)N(C)C)cn2C` [compound 43], the IC50 turned out to be 10 nM. Under `CCOc1nc2[nH]cc(C(=O)C(N)=O)c2cc1C(=O)N1CCC(Cc2ccc(F)cc2)CC1` [compound 37] stands 67 nM.

Take `CNC(=O)C(=O)c1c[nH]c2nc(OC)c(C(=O)N3CCN([C@H](C)c4ccc(F)cc4)C[C@H]3C)cc12` [compound 32]: the IC50 came out at 30 nM.

For the molecule `Cc1nc2[nH]cc(C(=O)C(N)=O)c2cc1C(=O)N1C[C@H](C)N(Cc2ccc(F)cc2)C[C@H]1C` [compound 66], the IC50 turned out to be 80 nM. Then `C[C@@H]1CN(Cc2ccc(F)cc2)[C@@H](C)CN1C(=O)c1ccc2[nH]ccc2n1` [compound 67], with 750 nM; and `COc1nc2[nH]c(C)c(C(=O)C(=O)N3CCCC3)c2cc1C(=O)N1CCC(Cc2ccc(F)cc2)CC1` [compound 15], with 38 nM. Then `COc1nc2c(cc1C(=O)N1C[C@H](C)N(Cc3ccc(F)cc3)C[C@H]1C)c(C(=O)C(=O)N(C)OC)cn2C` [compound 45], with 20 nM; and `COc1nc2[nH]cc(C(=O)C(=O)N3CC[C@@H](O)C3)c2cc1C(=O)N1C[C@H](C)N(Cc2ccc(F)cc2)C[C@H]1C` [compound 21], with 10 nM; and `COc1nc2c(cc1C(=O)N1C[C@H](C)N(Cc3ccc(F)cc3)C[C@H]1C)c(C(=O)C(N)=O)cn2C` [compound 41], with 20 nM.

As to `CNC(=O)C(=O)c1cn(COC)c2nc(OC)c(C(=O)N3C[C@H](C)N(Cc4ccc(F)cc4)C[C@H]3C)cc12` [compound 54], the IC50 came out at 50 nM.

In the case of `COc1nc2[nH]cc(C(=O)C(=O)O)c2cc1C(=O)N1CCC(Cc2ccc(F)cc2)CC1` [compound 33], the IC50 is 15 nM.

As for `C[C@@H]1CN(Cc2ccc(F)cc2)[C@@H](C)CN1C(=O)c1nc2c(C(=O)C(=O)O)c[nH]c2cc1Cl` [compound 72], the IC50 was 14 nM. As for `Cc1nc2[nH]cc(C(=O)C(=O)N3CCCC3)c2cc1C(=O)N1C[C@H](C)N(Cc2ccc(F)cc2)C[C@H]1C` [compound 65], the IC50 stood at 80 nM.

For `CCOc1nc2[nH]cc(C(=O)C(=O)NC)c2cc1C(=O)N1C[C@H](C)N(Cc2ccc(F)cc2)C[C@H]1C` [compound 34], the IC50 worked out at 30 nM. Under `COCn1cc(C(=O)C(N)=O)c2cc(C(=O)N3C[C@H](C)N(Cc4ccc(F)cc4)C[C@H]3C)c(OC)nc21` [compound 53] stands 30 nM; under `CCNC(=O)C(=O)c1c[nH]c2nc(OC)c(C(=O)N3CCC(Cc4ccc(F)cc4)CC3)cc12` [compound 16], 39 nM; under `Cc1nc2[nH]cc(C(=O)C(=O)N(C)C)c2cc1C(=O)N1C[C@H](C)N(Cc2ccc(F)cc2)C[C@H]1C` [compound 63], 30 nM.

On to `CNC(=O)C(=O)c1cn(C)c2nc(OC)c(C(=O)N3C[C@H](C)N(Cc4ccc(F)cc4)C[C@H]3C)cc12` [compound 42], for which the IC50 amounted to 20 nM. Under `COc1nc2[nH]cc(C(=O)C(=O)NC(C)C)c2cc1C(=O)N1C[C@H](C)N(Cc2ccc(F)cc2)C[C@H]1C` [compound 48] stands 50 nM; under `CNC(=O)C(=O)c1c[nH]c2nc(OC)c(C(=O)N3C[C@H](C)N(Cc4ccc(F)cc4)C[C@H]3C)cc12` [compound 18], 20 nM.

For the molecule `CCOc1nc2[nH]cc(C(=O)C(=O)N3CCCC3)c2cc1C(=O)N1C[C@H](C)N(Cc2ccc(F)cc2)C[C@H]1C` [compound 59], the IC50 came out at 30 nM. Under `COc1nc2[nH]cc(C(=O)C(N)=O)c2cc1C(=O)N1C[C@H](C)N(Cc2ccc(F)cc2)C[C@H]1C` [compound 30] stands 10 nM; under `COC(=O)C(=O)c1c[nH]c2cc(Cl)c(C(=O)N3C[C@H](C)N(Cc4ccc(F)cc4)C[C@H]3C)nc12` [compound 71], 34 nM. Then `COCn1cc(C(=O)C(=O)N(C)C)c2cc(C(=O)N3C[C@H](C)N(Cc4ccc(F)cc4)C[C@H]3C)c(OC)nc21` [compound 55], with 20 nM; and `CNC(=O)C(=O)c1c[nH]c2cc(OC)c(C(=O)N3C[C@H](C)N(Cc4ccc(F)cc4)C[C@H]3C)nc12` [compound 76], with 98 nM; and `CCN(C)C(=O)C(=O)c1c[nH]c2nc(OC)c(C(=O)N3C[C@H](C)N(Cc4ccc(F)cc4)C[C@H]3C)cc12` [compound 20], with 12 nM. Then `COc1nc2c(cc1C(=O)N1C[C@H](C)N(Cc3ccc(F)cc3)C[C@H]1C)c(C(=O)C(=O)N1CCCC1)cn2C` [compound 46], with 50 nM; and `COc1nc2[nH]cc(C(=O)C(=O)NC3CCCC3)c2cc1C(=O)N1C[C@H](C)N(C(c2ccccc2)c2ccccc2)C[C@H]1C` [compound 25], with 130 nM.

Consider `CONC(=O)C(=O)c1cn(C)c2nc(OC)c(C(=O)N3C[C@H](C)N(Cc4ccc(F)cc4)C[C@H]3C)cc12` [compound 50], for which the half-maximal inhibitory concentration (IC50) worked out at 40 nM. Consider `COCn1cc(C(=O)C(=O)N2CCCC2)c2cc(C(=O)N3C[C@H](C)N(Cc4ccc(F)cc4)C[C@H]3C)c(OC)nc21` [compound 56], for which the IC50 was determined as 40 nM. Then `CNC(=O)C(=O)c1cn(Cc2ccc(OC)cc2)c2nc(OC)c(C(=O)N3C[C@H](C)N(Cc4ccc(F)cc4)C[C@H]3C)cc12` [compound 39], with 610 nM; and `COc1nc2[nH]cc(C(=O)C(=O)N(C)C)c2cc1C(=O)N1C[C@H](C)N(C(c2ccccc2)c2ccccc2)C[C@H]1C` [compound 22], with 70 nM. Then `COc1nc2[nH]cc(C(=O)C(=O)N3CCCC3)c2cc1C(=O)N1C[C@H](C)N(Cc2ccc(F)cc2)C[C@H]1C` [No. 5, 1-{5-[4-(4-Fluoro-benzyl)-2R,5S-dimethyl-piperazine-1-carbonyl]-6-methoxy-1H-pyrrolo[2,3-b]pyridin-3-yl}-2-pyrrolidin-1-yl-ethane-1,2-dione], with 30 nM. Then `CCNC(=O)C(=O)c1c[nH]c2nc(OCC)c(C(=O)N3C[C@H](C)N(Cc4ccc(F)cc4)C[C@H]3C)cc12` [compound 57], with 30 nM; and `COc1nc2[nH]cc(C(=O)C(N)=O)c2cc1C(=O)N1CCN(Cc2ccc(F)cc2)C[C@H]1C` [compound 31], with 100 nM. On to `CNC(=O)C(=O)c1c[nH]c2ccc(C(=O)N3C[C@H](C)N(Cc4ccc(F)cc4)C[C@H]3C)nc12` [compound 70], for which the IC50 amounted to 600 nM. As to `C[C@@H]1CN(Cc2ccc(F)cc2)[C@@H](C)CN1C(=O)c1ccc2[nH]cc(C(=O)C(=O)O)c2n1` [compound 69], the IC50 came to 700 nM. With `COc1nc2[nH]cc(C(=O)C(=O)N(C)C)c2cc1C(=O)N1C[C@H](C)N(Cc2ccc(F)cc2)C[C@H]1C` [compound 19], the IC50 is 8.2 nM. Then `COc1nc2[nH]cc(C(=O)C(=O)N3CCCC3)c2cc1C(=O)N1C[C@H](C)N(C(c2ccccc2)c2ccccc2)C[C@H]1C` [compound 23], with 120 nM; and `CNC(=O)C(=O)c1c[nH]c2nc(C)c(C(=O)N3C[C@H](C)N(Cc4ccc(F)cc4)C[C@H]3C)cc12` [compound 62], with 70 nM.

Values taken from patent US20050288299A1, “Azaindole derivatives as inhibitors of p38 kinase” (priority 2002, published 2005).
